Laboratory results as given in US6479531B1, “Gastrin and cholecystokinin receptor ligands” (James Black Foundation Limited, priority 1998, dated 2002).

What follows are compounds tested against T1, gastrin receptor (Rattus norvegicus, UniProt P30553) (assay: gastrin antagonist activity in immature rat stomach assay (pentagastrin dose-response, acid secretion)). Details: isolated immature rat stomach, cumulative pentagastrin dose-response curves.
T1 construct: The stomach was excised and flushed with ca. 1 ml of unbuffered physiological saline solution; from tissue; host or cells: isolated whole stomach of immature rats (ca. 21 days old)
T1 sequence (P30553 1-452): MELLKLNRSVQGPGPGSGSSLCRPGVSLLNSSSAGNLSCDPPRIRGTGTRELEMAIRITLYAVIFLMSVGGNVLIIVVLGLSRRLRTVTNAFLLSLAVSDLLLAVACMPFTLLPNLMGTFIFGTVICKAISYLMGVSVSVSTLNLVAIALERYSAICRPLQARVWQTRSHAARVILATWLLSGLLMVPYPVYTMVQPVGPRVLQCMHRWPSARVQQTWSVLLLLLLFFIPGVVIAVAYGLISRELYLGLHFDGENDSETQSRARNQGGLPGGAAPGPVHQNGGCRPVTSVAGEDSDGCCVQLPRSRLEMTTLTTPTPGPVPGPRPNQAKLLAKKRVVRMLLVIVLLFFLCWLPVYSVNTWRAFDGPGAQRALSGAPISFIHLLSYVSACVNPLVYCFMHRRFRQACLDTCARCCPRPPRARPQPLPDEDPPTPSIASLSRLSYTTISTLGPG
Experimental: The compounds of the examples were also tested for gastrin antagonist activity in an immature rat stomach assay. The procedure was as follows:
The oesophagus of immature rats (33-50 g, ca. 21 days old) was ligated at the level of the cardiac sphincter and the duodenal sphincter was cannulated. The stomach was excised and flushed with ca. 1 ml of unbuffered physiological saline solution. The fundus was punctured and cannulated. A further 4-5 ml of unbuffered solution was flushed through the stomach to ensure the preparation was not leaking. The stomach was lowered into a jacketed organ bath containing 40 ml of buffered solution containing 3×10^−8 M 5-methylfurmethide, maintained at 37° and gassed vigorously with 95% O2/5% CO2. The stomach was continuously perfused at a rate of 1 ml min^−1 with unbuffered solution gassed with 100% O2 with the perfusate passing over an internally referenced pH-electrode fixed 12 cm above the stomach.
After 120 min of stabilisation the drugs were added directly to the serosal solution in the organ bath and after a further 60 min cumulative pentagastrin dose-response curves were started. Changes in acid secretion were monitored and the curves analysed according to Black et al., Br. J. Pharmacol., 1985, 86, 581.
`Cc1ccc(NC(=O)c2nc([C@@H]3CC4C=C[C@H]3C4)[nH]c2COC23CC4CC(CC(C4)C2)C3)cc1C(=O)O` [Example 290, endo-5-{[5-(Adamantan-1-yloxymethyl)-2-((1R,2R)-bicyclo[2.2.1]hept-5-en-2-yl)-1H-imidazole-4-carbonyl]-amino}-2-methyl-benzoic Acid] was tested, and the “Gastrin pKb” value was 8.55. In the case of “(±)-3-{[5-(2-Adamantan-1-yl-ethyl)-2-[1-(2-methyl-propyl)-piperidin-2-yl])-1H-imidazole-4-carbonyl]-amino}-benzoic Acid [Example 140]”, the “Gastrin pKb” value is reported as 7.54. In the case of “(±)-5-{[5-(2-Adamantan-1-yl-ethyl)-2-[1-methyl-piperidin-2-yl])-1H-imidazole-4-carbonyl]-amino}-2-methyl-benzoic Acid [Example 141]”, the “Gastrin pKb” value is reported as 7.21.

Same assay, conditions: isolated immature rat stomach, cumulative pentagastrin dose-response curves, read-out: Gastrin pKb (converted)
`Cc1cc(C)c(-c2nc(COC34CC5CC(CC(C5)C3)C4)c(C(=O)Nc3cccc(C(=O)O)c3)n2O)c(C)c1` [Example 312, 3-{[5-(Adamantan-1-yloxymethyl)-2-(2,4,6-trimethyl-phenyl)-3-hydroxy-3H-imidazole-4-carbonyl]-amino}-benzoic Acid] showed a Kb of 0.0347 µM. `O=C(Nc1cccc(C(=O)N2CCC[C@H]2C(=O)O)c1)c1nc(C2CCCCC2)[nH]c1CCC12CC3CC(CC(C3)C1)C2` [Example 285, (S)-1-(3-{[5-(2-Adamantan-1-yl-ethyl)-2-cyclohexyl-1H-imidazole-4-carbonyl]-amino}-benzoyl)-pyrrolidine-2-carboxylic Acid] was tested, and the Kb was 1 µM. With `O=C(O)c1cccc(NC(=O)c2nc(C3C4CC5CC(C4)CC3C5)[nH]c2CCC23CC4CC(CC(C4)C2)C3)c1` (stereo not shown) [Example 207, 3-{[2-Adamantan-2-yl-5-(2-adamantan-1-yl-ethyl)-1H-imidazole-4-carbonyl]-amino}benzoic Acid] the Kb was 0.0692 µM. In the case of `Cc1ccccc1-c1nc(CCc2cccc(C(=O)O)c2)c(CCC23CC4CC(CC(C4)C2)C3)[nH]1` [Example 280, 3-{2-[5-(2-Adamantan-1-yl-ethyl)-2-o-tolyl-1H-imidazol-4-yl]-ethyl}-benzoic Acid], the Kb is reported as 1.82 µM. With `O=C(O)CC(=O)Nc1cccc(NC(=O)c2nc(C3CCCCC3)[nH]c2CCC23CC4CC(CC(C4)C2)C3)c1` [Example 267, N-(3-{[5-(2-Adamantan-1-yl-ethyl)-2-cyclohexyl-1H-imidazole-4-carbonyl]-amino}-phenyl)-malonamic Acid] the Kb was 0.112 µM. Work on `O=C(O)c1cccc(NC(=O)c2[nH]c(C34CCC(CC3)CC4)nc2CCC23CC4CC(CC(C4)C2)C3)c1` [Example 212, 3-{[5-(2-Adamantan-1-yl-ethyl)-2-bicyclo[2.2.2]oct-1-yl-1H-imidazole-4-carbonyl]-amino}-benzoic Acid] yielded a Kb of 0.00245 µM. Work on `O=C(O)c1cccc(NC(=O)c2nc(C3CCC=CCC3)[nH]c2COC23CC4CC(CC(C4)C2)C3)c1` [Example 230, 3-{[5-(Adamantan-1-yloxymethyl)-2-cyclohept-4-enyl-1H-imidazole-4-carbonyl]-amino}-benzoic Acid] yielded a Kb of 0.00617 µM. `O=C(O)c1cccc(NC(=O)c2nc(C34C=CC(CC3)CC4)[nH]c2COC23CC4CC(CC(C4)C2)C3)c1` [Example 225, 3-{[5-(Adamantan-1-yloxymethyl)-2-bicyclo[2.2.2]oct-2-en-1-yl-1H-imidazole-4-carbonyl]-amino}-benzoic Acid] was tested, and the Kb was 0.000661 µM. Compound `Cc1ccc(NC(=O)c2nc(C3CCCCC3)[nH]c2COCC23CC4CC(CC(C4)C2)C3)cc1C(=O)O` [Example 310, 5-{[5-(Adamantan-1-ylmethoxymethyl)-2-cyclohexyl-1H-imidazole-4-carbonyl]-amino}-2-methyl-benzoic Acid] has a Kb of 0.115 µM. `O=C(O)c1cccc(NC(=O)c2c(COC34CC5CC(CC(C5)C3)C4)nc(C34CCC(CC3)CC4)n2O)c1` [Example 314, 3-{[5-(Adamantan-1-yloxymethyl)-2-bicyclo[2.2.2]oct-1-yl-3-hydroxy-3H-imidazole-4-carbonyl]-amino}-benzoic Acid] showed a Kb of 0.00631 µM.
